The values that follow come from PubChem BioAssay AID1996.

Values after ≈ are worked out from the molar mass of the structure shown.

For the series the following is noted: buffer; pH 7.4; 200.0 µM.
For `CC(C)n1cnc2cc(NCc3ccccc3O)ccc21`, the solubility (kinetic) was 32 µg/mL (≈ 114 µM).

On to `Cc1ccc(CNC(=O)c2ccc(C)s2)cc1`, for which the kinetic solubility is 19.2 µg/mL (≈ 78.3 µM).

In turn, `CC(C)(C)CC(C)(C)NC(=O)c1ccccc1` registered a solubility (kinetic) of more than 35 µg/mL.

`Cc1ccc(NC(=O)NCc2ccc3[nH]c(C)cc3c2)cc1` came in with a solubility (kinetic) of 2.9 µg/mL (≈ 9.89 µM).

Consider `CCCNC(=O)CSc1nccn1Cc1ccc(OC)cc1`, for which the kinetic solubility is more than 47.9 µg/mL.

For the compound `Cc1cccc2cc(C#N)c(N3CCC(O)CC3)nc12`, the solubility (kinetic) amounted to 34.3 µg/mL (≈ 128 µM).

Compound `OC(c1ccccc1)(c1ccc(Cl)cc1)C1CN2CCC1CC2` (configuration not stated) had a solubility (kinetic) of more than 49.2 µg/mL.

On to `O=C(c1ccc2ccccc2c1)N1CCc2ccccc21`, for which the kinetic solubility was less than 0.6 µg/mL.

`Cc1ccc2c(c1)N(Cc1ccc([N+](=O)[O-])cc1)C=NS2(=O)=O` registered a kinetic solubility of 34.9 µg/mL (≈ 105 µM).

As for `CC(C)(C)c1ccc(NC(=S)NCc2cccnc2)cc1`, the solubility (kinetic) was 40.8 µg/mL (≈ 136 µM).

In turn, `CCOc1ccc2nc(SCC(=O)NCc3ccc(S(N)(=O)=O)cc3)[nH]c2c1` showed a kinetic solubility of 35.2 µg/mL (≈ 83.7 µM).

`Cc1ccc(N2N=C(C(=O)O)CCC2=O)cc1Cl`: the kinetic solubility is more than 40 µg/mL.

For the compound `COc1ccccc1NC(=O)COc1cccc2c1CCNC2=O`, the kinetic solubility is 6.9 µg/mL (≈ 21.1 µM).

`Cc1ccc2c(Cl)cc(Cl)c(OCC(=O)O)c2n1`: the solubility (kinetic) is more than 42.9 µg/mL.

As for `Cn1cnc(S(=O)(=O)N2CCN(c3ccccc3)CC2)c1`, the solubility (kinetic) worked out at 34.3 µg/mL (≈ 112 µM).

`CCCCc1c(O)c2cccc3c2n(c1=O)CCC3` showed a kinetic solubility of 35.2 µg/mL (≈ 137 µM).

Compound `COc1cccc(NC(=S)N2CCCN(Cc3ccc(F)cc3)C2)c1` came in with a kinetic solubility of 49.8 µg/mL (≈ 139 µM).

As for `CC(C(=O)O)c1ccc2c(c1)[nH]c1ccc(Cl)cc12` (configuration not stated), the solubility (kinetic) is more than 41.1 µg/mL.

The compound `O=C(COC(=O)/C=C/c1cccs1)NC1CC1` displayed a solubility (kinetic) of more than 37.7 µg/mL.

Turning to `Cc1ccc2ncccc2c1N`, the solubility (kinetic) was more than 23.7 µg/mL.

`CC(=O)Nc1ccc2nc(NC(=O)CCc3ccccc3)sc2c1`: the solubility (kinetic) is 0.7 µg/mL (≈ 2.06 µM).

The compound `COc1cc(CN2CCCCCC2)c([N+](=O)[O-])cc1OC` yielded a solubility (kinetic) of 34.8 µg/mL (≈ 118 µM).

As to `O=C(OCC(=O)N1CCC(Cc2ccccc2)CC1)c1cncc(Br)c1`, the kinetic solubility amounted to 9.9 µg/mL (≈ 23.7 µM).

In turn, `COc1cc(C(=O)NC(=S)N2CCN(C)CC2)cc(OC)c1OC` gave a kinetic solubility of more than 53 µg/mL.

`CC(C)c1cc(C(=O)O)c2ccccc2n1` returned a solubility (kinetic) of 28.2 µg/mL (≈ 131 µM).

In turn, `COC(=O)[C@H](Cc1ccccc1)NC(=O)NC(C)CCc1ccccc1` (some centres not stated) gave a solubility (kinetic) of 49.8 µg/mL (≈ 140 µM).

`CC(C)(C)NS(=O)(=O)c1ccc(NC(=O)C2CCCCC2)cc1`: the kinetic solubility stood at 11.5 µg/mL (≈ 34 µM).

In turn, `COc1cccc(C(O)c2cnc(C(C)C)n2C)c1` (configuration not stated) registered a kinetic solubility of more than 39.1 µg/mL.

In the case of `Cc1ccccc1NC(=O)c1sc(NC(=O)C2CC2)nc1C`, the solubility (kinetic) was determined as 4.8 µg/mL (≈ 15.2 µM).

As for `Cc1cc(C(=O)OC(C)C(=O)NC2CCCCC2C)c(C)o1` (configuration not stated), the kinetic solubility was 5.5 µg/mL (≈ 17.9 µM).

Regarding `COc1ccc(CNC(=O)c2cc(=O)c3cc(C)ccc3o2)cc1`, the kinetic solubility is less than 0.7 µg/mL.

`CCOC(=O)c1nc(Nc2ccc(OC)cc2)c2ccccc2n1` registered a kinetic solubility of more than 48.5 µg/mL.

`COc1ccccc1NC(=O)/C(C#N)=C/c1cccn1C` returned a solubility (kinetic) of 0.6 µg/mL (≈ 2.13 µM).

With `NC(=O)c1ccc2nc(-c3ccccc3)c(-c3ccccc3)nc2c1`, the solubility (kinetic) was 0.6 µg/mL (≈ 1.84 µM).

Compound `O=C(Nc1ccc(F)c(Cl)c1)c1ccc2c(c1)OCO2` had a kinetic solubility of less than 0.6 µg/mL.

Take `Cc1c(C=O)c2ccccc2n1Cc1ccccc1`: the solubility (kinetic) was 2.6 µg/mL (≈ 10.4 µM).

As for `Cc1ccc(NC(=O)C(=O)Nc2ccc(C)cn2)nc1`, the kinetic solubility came to 1.8 µg/mL (≈ 6.66 µM).

`O=C1CCN(C(=O)CCCn2c(=O)oc3ccccc32)CC1` came in with a kinetic solubility of more than 45.3 µg/mL.

Compound `COc1ccc(OC)c(-c2cc(-c3cccnc3)nc(N)c2C#N)c1` registered a kinetic solubility of 1.7 µg/mL (≈ 5.11 µM).

For `COc1ccc(C(=O)O/N=C(\N)c2ccc(OC)c(OC)c2)cc1`, the kinetic solubility came out at 9.3 µg/mL (≈ 28.2 µM).

Consider `COc1ccc(CNC(=O)C(NC(C)=O)C(C)C)cc1OC` (configuration not stated), for which the solubility (kinetic) was more than 46.3 µg/mL.

For `COc1ccc(N2C(S)=C(C#N)C(=O)NC23CCCCC3)cc1`, the kinetic solubility stood at 19.3 µg/mL (≈ 58.6 µM).

Compound `CCCCOc1cc(CC2CNC(=O)N2)ccc1OC` (configuration not stated) came in with a kinetic solubility of more than 41.8 µg/mL.

Compound `CC1CCCN(S(=O)(=O)c2cc3c4c(c2)CCN4C(=O)CC3)C1` (configuration not stated) registered a kinetic solubility of more than 50.2 µg/mL.

Compound `Cc1cc2nc(/C(C#N)=C/c3ccncc3)[nH]c2cc1C` displayed a kinetic solubility of 1.7 µg/mL (≈ 6.2 µM).

As to `COc1ccc(CN2CCC(C(=O)c3ccc(F)cc3)CC2)cc1`, the solubility (kinetic) is more than 49.1 µg/mL.

`CCOCCCNC(=O)/C(C#N)=C/c1ccc([N+](=O)[O-])o1` showed a kinetic solubility of 24 µg/mL (≈ 81.8 µM).

Turning to `O=C(CCCc1nc(-c2ccccc2Cl)no1)N1CCOCC1`, the kinetic solubility is more than 50.4 µg/mL.

Regarding `Cn1ccsc1=NC(=O)c1ccc([N+](=O)[O-])o1`, the kinetic solubility turned out to be 18.4 µg/mL (≈ 72.7 µM).

`c1csc(-c2noc(CN3CCc4sccc4C3)n2)c1` showed a solubility (kinetic) of 27.3 µg/mL (≈ 90 µM).

Regarding `Cc1cc(C)c2c3c(oc2n1)C(=O)N(c1cccc(Cl)c1)CC(=O)N3`, the kinetic solubility came out at 0.7 µg/mL (≈ 1.97 µM).

In turn, `COc1ccc(COC(=O)CN2C(=O)NC3(CC(C)CC(C)(C)C3)C2=O)cc1F` (configuration not stated) registered a solubility (kinetic) of 5.1 µg/mL (≈ 12.5 µM).

One may read the solubility (kinetic) as the concentration staying in solution when a stock, usually in DMSO, is diluted into the medium.
